Experiments:
[1] = Charge of predominate species in solution at physiological pH; format: physicochemical; settings: physiological pH = 7.4
[2] = Octanol/aqueous buffer partition coefficient (modified shake-flask); format: physicochemical; settings: octanol/water, buffered at pH 7 with 10 mM Tris
Excerpt: To understand better the limitations of TPP in directing fluorophores to mitochondria, we prepared two additional TPP-derivatives, one based on 6-carboxyfluorescein (FL-TPP) and one on coumarin 343 (C343-TPP). […] To test this hypothesis, we conducted live cell fluorescence imaging experiments with FL-TPP. […] Not only did FL-TPP fail to accumulate in mitochondria, it was cell-impermeable under our imaging conditions. In contrast, the cationic C343-TPP strongly colocalized with MitoTracker Red in live HeLa cells (Pearson's r=0.72±0.02). To quantify the effect of hydrophobicity in mitochondrial-targeting, we measured the octanol/aqueous buffer partition coefficient (log P) for our TPP constructs and two MitoTracker dyes. We then tabulated the log P, charge of the predominate species in solution at physiological pH, and cellular localization for each dye (Table 1). […] Along with cationic charge, a minimum level of lipophilicity must be reached in order to evade endo/lysosomal sequestration and enable effective mitochondrial targeting.

HeLa cells = assay: Live cell fluorescence imaging: localization, co-localization and uptake; format: cell-based; settings: fluorescence microscopy, live HeLa cells (Table 1)
Protocol: FIG. 6 depicts live cell imaging of HeLa cells. 500 nM mitotracker Red was bath-applied along with 1 μM DA-ZP1-TPP for 30 min at 37° C. and 5% CO2. After exposure to 25 μM 1:2 zinc:pyrithione, fluorescent images were acquired and the co-localization of the two sensors was assessed. The calculated Pearson's correlation coefficient (r) was r=0.581±0.097 (n=9), which represents the average of 9 ROIs over three independent plates.
FIG. 14 depicts live cell imaging of HeLa cells. 1 μM Lysotracker Red was bath-applied along with 2 μM ZP1-TPP. The calculated Pearson's correlation coefficient (r) was r=0.45±0.15, which represents the average of 9 ROIs over three independent plates.
FIG. 24 depicts fluorescence images of live HeLa cells. HeLa cells were pretreated with a 1 μM solution of DA-ZP1-TPP in dye- and serum-free medium for 30 min (37° C., 5% CO2). […] The signal from MitoTracker Red (c) correlates well with the signal from the zinc-bound sensor (d). Pearson's r=0.64±0.1 (n=18).
FIG. 27 depicts deconvoluted fluorescence microscopy images of live HeLa cells pretreated with ZP1-R9 (5 μM) or DA-ZP1-R9 (2.5 μM) and the indicated organelle stain. Top, ZP1-R9: (a) Differential interference contrast (DIC) image, (b) signal from ZP1-R9, (c) signal from LysoTracker Red, (d) overlay of (b) and (c). Pearson's r=0.42±0.16 (n=8). Bottom, DA-ZP1-R9: (e) DIC, (f) signal from DA-ZP1-R9 after treatment with 25 μM ZnPT, (g) signal from Hoechst 33258, (h) overlay of (f) and (g). Scale bar=25 μm.
FIG. 29 depicts deconvoluted fluorescence microscopy images of live HeLa cells pretreated with 1 μM DA-ZP1-R9 and 100 nM Dextran Red. (a) Differential interference contrast (DIC), (b) signal from DA-ZP1-R9 after addition of 25 μM ZnPT (c) signal from Dextran Red, (d) overlay of (b) and (c). Pearson's r=0.55±0.12 (n=11). Scale bar=25 μm.
FIG. 31 depicts deconvoluted fluorescence microscopy images of ZP1-(Fxr)3 and DA-ZP1-r(Fxr)3 in live HeLa cells. Top, cells pretreated with medium containing 2.5 μM of ZP1-(Fxr)3: (a) Differential interference contrast (DIC) image, (b) signal from ZP1-(Fxr)3, (c) signal from Dextran Red, (d) overlay of (b) and (c). Pearson's r=0.71±0.07. Bottom, cells pretreated with 1 μM DA-ZP1-r(Fxr)3: (e) DIC, (f) signal from DA-ZP1-r(Fx)3 after treatment with 25 μM ZnPT, (g) signal from MitoTracker Red, (h) overlay of (f) and (g). Pearson's r=0.41±0.09. Scale bar=25 μm.
FIG. 33 depicts deconvoluted fluorescence microscopy images of DCF-r(Fxr)3 and DA-DCF-r(Fxr)3 in live HeLa cells. Top, cells pretreated with 5 μM DCF-r(Fxr)3 and 500 nM MitoTracker Red for 30 min. (a) differential contrast image (DIC), (b) signal from DCF-r(Fxr)3, (c) signal from MitoTracker Red. Bottom, cells pretreated with 5 μM DA-DCF-r(Fxr)3 and 500 nM MitoTracker Red for 30 min. (d) DIC, (e) signal from DCF-r(Fxr)3, (f) signal from MitoTracker Red. The global Pearson's r=0.57±0.16 (n=37). Cells with high levels of DA-DCF-r(Fxr)3 (e, red outline) have a higher Pearson's r=0.83±0.08 (n=10). Scale bar=25 μm.
We used HeLa cells as a model system to evaluate the ability of DA-ZP1-TPP to target mitochondria and respond to changes in intracellular zinc levels. […] Over a two-hour period, the fluorescence intensity from the sensor remained constant, implying that the acetylated form is stable against intracellular esterases (FIG. 24e). […] Addition of 100 μM TPEN attenuated the fluorescence signal by ˜2.4-fold (FIG. 24f). […]

[3] = Deacetylation kinetics monitored by UV-vis absorbance (metal-mediated and uncatalyzed hydrolysis); format: physicochemical; settings: analogous conditions, EDTA or ZnCl2
Protocol: (§1) FIG. 23 depicts kinetic traces for the deacetylation of DA-ZP1-TPP. The half-life for deacetylation of a 2.75 μM solution of DA-ZP1-TPP, at 37° C. in 50 mM PIPES buffer (pH 7) and 100 mM KCl, was measured in the presence of 125 μM ZnCl2 (+Zn), 250 μM EDTA (−Zn), or 1.25 units of porcine liver esterase (Esterase). The change in absorbance at 520 nm (EDTA and esterase) or 510 nm (ZnCl2) was used to monitor the reaction.
FIG. 26 depicts in vitro characterization of DA-ZP1-A3. (a) UV-vis and (b) fluorescence spectra of a 5 μM solution of DA-ZP1-A3 in buffer (50 mM PIPES, 100 mM KCl; pH 7). Spectra were acquired initially, upon addition of 100 μM ZnCl2, and again after addition of 200 μM EDTA. (c) Time-dependent change in the normalized absorbance of a ca. 5 μM solution DA-ZP1-A3 at 37° C. in buffer (50 mM PIPES, 100 mM KCl; pH 7) in the presence of 100 μM ZnCl2 (λabs=510 nm) or EDTA (λabs=520 nm). (d) Integrated fluorescence intensity of a 1 μM solution of ZP1-A3 (circles) or DA-ZP1-A3 (squares) as a function of pH. […]
DA-ZP1-TPP has a zinc-induced fluorescence response and is relatively stable to uncatalyzed hydrolysis and esterase activity. […] Other late 3d-block transition metal ions, such as Co(II) and Cu(II), can coordinate to DA-ZP1-TPP but are generally not available in appreciable chelatable quantities within the cell. […]

porcine liver esterase = assay: Deacetylation by porcine liver esterase (UV-vis absorbance); format: in vitro ADME; settings: analogous conditions, porcine liver esterase
Protocol: as §1
DA-ZP1-TPP has a zinc-induced fluorescence response and is relatively stable to uncatalyzed hydrolysis and esterase activity. […] Other late 3d-block transition metal ions, such as Co(II) and Cu(II), can coordinate to DA-ZP1-TPP but are generally not available in appreciable chelatable quantities within the cell. In addition to monitoring selectivity in the fluorescence response, we used UV-vis spectroscopy to investigate the rate and zinc-specificity of metal-mediated ester hydrolysis. DA-ZP1-TPP deacetylation results in opening of the lactone ring and restoration of conjugation across the xanthene ring. By monitoring the absorbance of the xanthene it system, we could interrogate deacetylation kinetics in a manner that is independent of the fluorescence response. […] To determine whether ester hydrolysis depends on the metal-binding core of DA-ZP1-TPP, we measured the deacetylation kinetics of fluorescein diacetate (DA-FL) under analogous conditions. […]

Charge of the predominate species in solution [1]	log P [2]	response to esterase (deacetylation) (porcine liver esterase)	logP ([2]; octanol/aqueous buffer)	Compound	Localization (HeLa cells)	stability to hydrolysis and zinc-mediated deacetylation [3]
+1	0.72 ± 0.05	–	–	O=C(NCC[P+](c1ccccc1)(c1ccccc1)c1ccccc1)c1cc2cc3c4c(c2oc1=O)CCCN4CCC3 [C343-TPP]	Mitochondria	–
–	–	responds rapidly to esterase	–	CC(=O)Oc1ccc2c(c1)Oc1cc(OC(C)=O)ccc1C21OC(=O)c2ccccc21 [DA-FL, fluorescein diacetate, reference compound]	–	relatively stable to hydrolysis and zinc-mediated deacetylation
+1	–	–	0.56 ± 0.02	CN1/C(=C/C=C/c2n(Cc3ccc(CCl)cc3)c3cc(Cl)c(Cl)cc3[n+]2Cc2ccc(CCl)cc2)Oc2ccccc21 [Mitotracker Green, reference compound]	Mitochondria	–
+1	1.15 ± 0.04	–	–	ClCc1ccc(C2=c3cc4c5c(c3Oc3c2cc2c6c3CCCN6CCC2)CCC[N+]=5CCC4)cc1.[Cl-] [Mitotracker Red, reference compound]	Mitochondria	–

Reference: US9700637B2, “Reaction-based fluorescent probes for detecting zinc” (Massachusetts Institute of Technology, priority 2013, dated 2017)
